The text below walks through data of patent publication US7253295B2, “Chloride channel opener” (Sucampo AG, priority 2001, dated 2007).

Assay [1] concerns Chloride Ion Transport into Lacrimal Fluid. Briefly: Chloride ion transport into lacrimal fluid in rabbits (Test Example 8). It is filed as in vivo, male white rabbits. Here is the method: Physiological saline, eye drops vehicle, or eye drops containing 0.0001% or 0.001% of Compound 1 was instilled to male white rabbits in the volume of 30 μL/eye. […] The collected lacrimal fluid was diluted five fold with distilled water, and the concentration of chloride ions was measured with a chloride counter (CL-7, Hiranuma Sangyo Co. Ltd.). Student's t-test and Wilcoxon's test were used in the comparison of the control group and the groups receiving Compound 1 in each dose. P values less than 0.05 were considered to be statistically significant.

Another assay concerns T84 cells. Put plainly: Short-circuit current in T84 cells (Test Example 5). It is filed as cell-based, human. Particulars: 50 nM. Here is the method:
T84 cells, a human intestinal cell line, derived form confluent monolayers with tight junctions were used. Said cell line has been widely used in studies of Cl^− transport using short-circuit current (Isc). These cells contain both CFTR and ClC-2.
T84 human intestinal epithelial cells were grown to confluence at pH 7.4 in 162-cm^2 flasks (Corning Costar, Mass.) with a 1:1 mixture of Dulbecco's modified Eagle's medium and Ham's F-12 nutrient mixture supplemented with 6% fetal bovine serum (FBS), 15 mM HEPES, 14.3 mM NaHCO^3, and antibiotics/antimycotic. Flasks were passaged weekly and fed every 3 days. Cell monolayers for experiments were grown to confluence on collagen-coated permeable support (Biocoat). Monolayers were fed every 3 days and used after stable transepithelia resistance was achieved, c.a. 7-14 days post-plating.
According to the same manner as described in Example 2, Short-circuit current measurements in T84 cells were carried out. Changes in short-circuit current (ΔIsc) were normalized to filter area (0.3 cm^2) and reported as ΔIsc/cm^2.
Compound 1 was used at a final concentration of 50 nM.

Another assay concerns CFBE41o- cells. Briefly: Short-circuit current in CFBE41o- cells (Test Example 2). The format is cell-based, Human. Particulars: 1 μM, 1% DMSO. Here is the method: 16HBE14o- cells, a Human airway cell line derived from a healthy individual, which contain ClC-2 and the Cystic Fibrosis Transmembrane Regulator, Cl channel (CFTR); and CFBE41o- cells, a Human airway cell line derived from cystic fibrosis patients, which contain functional form of ClC-2 and defective form of CFTR (ΔF508 CFTR) were used. Both cells were cultured in MEM supplemented with 10% FBS (Hyclone), […] 1-glutamine and penicillin/streptomycin in flasks coated with fibronectin/collagen/BSA. When desired, the cells were plated on 0.3 cm^2 collagen-coated permeable filters (Biocoat). After 24 hrs, the apical medium was removed so that the cells were grown in air-water interface. While they were grown in air-water interface, the basolateral side of the cells was fed with the medium and the medium was changed every other day. The cells were allowed to grow to confluence.
Short-circuit current measurements were used to evaluate Cl transport in polarized, confluent cultures of the cells grown in air-water interface. A plexiglass chamber for short-circuit current measurements in confluent cell monolayers grown on the 0.3 cm^2 permeable support filters was used (World Precision Instruments, Sarasota, Fla.). Electrical measurements were made with a 7402C voltage clamp device (Bioengineering Department, Iowa University). […]

The subject of assay [2] is Chloride Ion Transport into Intestinal Fluid. Briefly: Chloride ion transport into intestinal fluid of rats (Test Example 6). The format is in vivo, male Wistar rats. Particulars: for Chloride Ion Concentration in Intestinal Fluid, Mean ± S.E.: 30 minutes after administration. As for the experimental part: Compound 1 (13,14-dihydro-15-keto-16,16-difluoro-prostaglandin E1) of 1, 10 or 100 μg/kg in the volume of 5 mL/kg was orally administered to male Wistar rats (six weeks old, weight:180-210 g) that had been fasted for at least 16 hours. The control group received the same volume of vehicle (distilled water containing 0.5% ethanol and 0.01% polysorbate 80). Thirty minutes after the administration, the animals were subjected to laparotomy under ether anesthesia. The top portion of the duodenum and the end portion of the ileum were ligated respectively, and the bowel was extirpated. The intestinal fluid of each animal was collected and centrifuged by 10,000×g for 5 minutes. Supernatant was collected, and the concentration of chloride ion in the supernatant of intestinal fluid was measured with a chloride counter (CL-7, Hiranuma Sangyo Co., Ltd.). Dunnett's test was used in the comparison of the control group and the groups receiving Compound 1 in each dose. P values less than 0.05 were considered to be statistically significant.

The subject of assay [3] is Chloride Ion Transport into Bile. Put plainly: Chloride ion transport into bile in rats (Test Example 7). The format is in vivo, male Wistar rats. As for the experimental part: Compound 2 (13,14-dihydro-15-keto-16,16- difluoro-18(S)-methyl-prostaglandin E1) of 100 μg/kg was orally administered to male Wistar rats (six weeks old, weight:180-210 g) three times a day for seven days. The control group (n=7) received the same volume of vehicle (distilled water containing 0.01% polysorbate 80 and 0.5% ethanol). In the following morning of the final administration day (about 17 hours after the final administration), a polyethylene catheter (PE10, Becton Dickinson and Company) was inserted in the rats' choledoch under ether anesthesia. The rats were placed into Borrmann's cages and were left for 1 hour to awake from anesthesia. Bile discharged in one hour, from one to two hours after the insertion of the catheter, was collected and the concentration of chloride ion in the bile was measured with a chloride counter (CL-7, Hiranuma Sangyo Co., Ltd.). Student's t-test was used in the comparison of the control group and the group receiving Compound 2. P values less than 0.05 were considered to be statistically significant.

SMILES strings stand for the structures. “And” between values parts separate entries of the source, which are not always exact repeats. Identical values can stand only once.

In the case of `CCCCC(F)(F)[C@@]1(O)CC[C@H]2[C@@H](CC(=O)[C@@H]2CCCCCCC(=O)O)O1` [Compound 1, (−)-7-[(2R,4aR,5R,7aR)-2-(1,1-difluoropentyl)-2-hydroxy-6-oxoperhydrocyclopenta[b]pyran-5-yl]heptanoic acid], the “Effect on concentration of chloride ions in the lacrimal fluid (in words)” value in assay [1] (0.0001% and 0.001% eye drops, compared with control group) is “increased the concentration of chloride ions in the lacrimal fluid in a dose-dependant manner”. In addition, the “Chloride Ion Concentration in lacrimal fluid, Mean ± S.E.” value in assay [1] (0.0001% eye drops, 30 μL/eye, Pre (0 hour)) worked out at 136.7 ± 3.6 mEq/L; in assay [1] (0.0001% eye drops, 2 hr after instillation), 123.4 ± 5.2 mEq/L; in assay [1] (0.0001% eye drops, 4 hr after instillation), 136.8 ± 2.3 mEq/L; in assay [1] (0.0001% eye drops, 6 hr after instillation), 136.8 ± 2.0 mEq/L; in assay [1] (0.0001% eye drops, 8 hr after instillation), 140.8 ± 2.8 mEq/L; in assay [1] (0.001% eye drops, 30 μL/eye, Pre (0 hour)), 135.4 ± 4.0 mEq/L. The “Chloride Ion Concentration in lacrimal fluid, Mean ± S.E.” value was 152.9 ± 7.7^[##] mEq/L in assay [1] (0.001% eye drops, 2 hr after instillation); 151.4 ± 2.9 mEq/L in assay [1] (0.001% eye drops, 4 hr after instillation); 138.9 ± 3.3 mEq/L in assay [1] (0.001% eye drops, 6 hr after instillation); 138.8 ± 1.6 mEq/L in assay [1] (0.001% eye drops, 8 hr after instillation). Also, the “Effect on Cl− transport in T84 cells (in words)” value in the assay on T84 cells is reported as “activated Cl^− transport”. Also, in the assay with T84 cells (T84 cells), the “Changes in short-circuit currents (Δlsc)” value is on record as 56.5 μA/cm^2. In addition, the “Short-Circuit Current (change)” value in the assay on CFBE41o- cells was 5.0±0.04 μA/cm^2 and 5.0 ± 0.4 μA/cm^2. The “Chloride Ion Concentration in Intestinal Fluid, Mean ± S.E.” value in assay [2] (1 μg/kg P.O.) was 82.2 ± 7.0 mEq/L; in assay [2] (10 μg/kg P.O.), 110.1 ± 5.6 mEq/L; in assay [2] (100 μg/kg P.O.) it was 126.6 ± 2.4 mEq/L. In addition, the “Effect on concentration of chloride ions in the bowel (in words)” value in assay [2] (1, 10 and 100 μg/kg P.O.) was “increased the concentration of chloride ions in the bowel in a dose-dependant manner”.
`CC[C@H](C)CC(F)(F)C(=O)CC[C@H]1[C@H](O)CC(=O)[C@@H]1CCCCCCC(=O)O` [Compound 2, 13,14-dihydro-15-keto-16,16-difluoro-18(S)-Methyl-PGE1]: the “Effect on concentration of chloride ions in the bile (in words)” value in assay [3] (100 μg/kg P.O. t.i.d. 7 days, compared with control group) is recorded as “increased significantly”. Besides, in assay [3] (100 μg/kg P.O., t.i.d. for 7 days, about 17 hours after final administration), the “Chloride Ion Concentration in Bile, Mean ± S.E.” value came out at 98.4 ± 1.8 mEq/L.
